Results as given in ChEMBL document CHEMBL3751691, “A Journey around the Medicinal Chemistry of Hepatitis C Virus Inhibitors Targeting NS4B: From Target to Preclinical Drug Candidates” (J Med Chem, 2016).
pEC50, pKd: −log10 of the molar value.

Key:
[1] = test system: Hepatitis C virus; test: Antiviral activity against HCV genotype 1b infected in human Huh7 cells assessed as inhibition of viral replication by luciferase reporter-based viral replicon assay; type: functional, organism-based, Hepacivirus hominis; settings: Huh-7
[2] = test system: Hepatitis C virus; test: Antiviral activity against HCV genotype 1b infected in human Huh7.5 cells assessed as inhibition of viral replication after 24 hrs by renilla luciferase reporter-based viral replicon assay; type: functional, organism-based, Hepacivirus hominis; settings: Huh-7, 24 h
[3] = Cytotoxicity against human Huh7.5 cells infected with HCV genotype 1b after 24 hrs by Cell Titer-Glo assay; type: cell-based, Huh-7
[4] = test system: Hepatitis C virus; test: Antiviral activity against HCV genotype 1b infected in human Huh7 cells assessed as inhibition of viral replication after 72 hrs by ELISA; type: functional, organism-based, Hepacivirus hominis; settings: Huh-7, 72 h
[5] = Binding affinity to […] by fluorescence assay; design: species or system Hepacivirus hominis
[6] = Ratio of plasma concentration in beagle dog at 8 hrs to EC50 for antiviral activity against HCV genotype 1b; type: ADME, cell-free
[7] = Ratio of drug level in brain to plasma in CRL-CD-BR rat; type: ADME, cell-free; settings: read-out: BPR
[8] = Ratio of plasma concentration in CRL-CD-BR rat at 8 hrs to EC50 for antiviral activity against HCV genotype 1b; type: ADME, cell-free
[9] = Ratio of plasma concentration in cynomolgus monkey at 8 hrs to EC50 for antiviral activity against HCV genotype 1b; type: ADME, cell-free
[10] = Ratio of drug level in liver to plasma in CRL-CD-BR rat; type: ADME, cell-free
[11] = test system: Hepatitis C virus; test: Antiviral activity against HCV genotype 1b infected in Huh7.5 cells assessed as inhibition of viral replication at 72 hrs by luciferase reporter-based viral replicon assay; type: functional, organism-based, Hepacivirus hominis; settings: Huh7.5, 72 h
[12] = test system: Hepatitis C virus; test: Antiviral activity against HCV infected in human HuH7 cells assessed as inhibition of viral replication after 72 hrs by ELISA-based viral replicon assay; type: functional, organism-based, Hepacivirus hominis; settings: Huh-7, 72 h
[13] = test system: Hepatitis C virus; test: Antiviral activity against HCV genotype 1a infected in Huh7 cells assessed as inhibition of viral replication after 48 hrs by luciferase reporter-based viral replicon assay; type: functional, organism-based, Hepacivirus hominis; settings: subtype 1a, Huh-7, 48 h
[14] = Cytotoxicity against human HuH7 cells infected with HCV after 72 hrs by crystal violet-based assay; type: cell-based; settings: huh-7, 72 h
[15] = test system: Hepatitis C virus; test: Antiviral activity against HCV genotype 1b infected in Huh7 cells assessed as inhibition of viral replication after 48 hrs by luciferase reporter-based viral replicon assay; type: functional, organism-based, Hepacivirus hominis; settings: Huh-7, 48 h
[16] = Cytotoxicity against human HuH7 cells infected with HCV genotype 1b after 48 hrs by WST-1 assay; type: cell-based, Huh-7
[17] = test system: Hepatitis C virus; test: Antiviral activity against HCV genotype 1b; type: functional, organism-based, Hepacivirus hominis
[18] = test system: Hepatitis C virus; test: Antiviral activity against HCV genotype 2a; type: functional, organism-based, Hepacivirus hominis

SMILES: CC(C)C[C@H]1CN(C(=O)c2cc(-c3ccccc3)[nH]n2)[C@@H](CC(C)C)C(=O)N1
- EC90 [1]: > 10000 nM

SMILES: CC(C)C[C@H]1C(=O)N[C@@H](C2CCCC2)CN1C(=O)c1cc(-c2ccc(F)cc2)on1
- EC90 [1]: 90 nM

SMILES: CC(C)C[C@H]1CN(C(=O)c2noc(-c3ccccc3)n2)[C@@H](CC(C)C)C(=O)N1
- EC90 [1]: 1400 nM

SMILES: CC[C@H](C)[C@H]1CN(C(=O)[C@@H]2C[C@H]2c2ccccc2)[C@@H](CC(C)C)C(=O)N1
- EC90 [1]: > 10000 nM

SMILES: O=C(NCc1cccs1)c1nn2c(c1Cl)NC(c1ccco1)CC2C(F)(F)F (racemic)
- pEC50 [2]: 5.75
- CC50 at 24 h [3]: > 100000 nM

SMILES: CC(C)C[C@H]1CN(C(=O)[C@@H]2C[C@H]2c2ccccc2)[C@@H](CC(C)C)CN1
- EC90 [1]: > 10000 nM

SMILES: CC(C)C[C@H]1CN(C(=O)/C=C\c2ccccc2)[C@@H](CC(C)C)C(=O)N1
- EC90 [1]: > 10000 nM

SMILES: CC(=O)c1ccc(NC(=O)c2cc3c(C)nn(-c4ccccc4)c3s2)cc1
- pEC50 [4]: 5.49
- pKd [5]: 6.00

SMILES: CCc1cc2c(cc1F)c(C#N)c(-c1ccc(S(=O)(=O)N[C@@H](C)C(F)(F)F)cn1)n2-c1ncccn1
- Ratio [6]: 460
- Kp [7]: 0.22
- Ratio [8]: 325
- Ratio [9]: 50
- Kp [10]: 25

SMILES: COC[C@H]1CN(C(=O)c2cc(-c3ccc(F)cc3)on2)[C@@H](CC(C)C)C(=O)N1
- EC90 [1]: > 10000 nM

SMILES: Cc1nccn1-c1nc(-c2ccc(Cl)cc2)cc(C(F)(F)F)n1
- pEC50 [4]: 5.66
- pKd [5]: 5.68

SMILES: CC(C)C[C@H]1C(=O)N[C@@H](CO)CN1C(=O)c1cc(-c2ccc(F)cc2)on1
- EC90 [1]: > 10000 nM

SMILES: C[C@H]1CCCN1CCCOc1nn(Cc2ccc(Cl)cc2)c2ccc(-c3ccc(N4CCOCC4)nc3)cc12
- pEC50 [11]: 5.48

SMILES: CC(C)C[C@H]1CN(C(=O)/C=C/c2ccc(Cl)cc2)[C@@H](CC(C)C)C(=O)N1
- EC90 [1]: 1600 nM

SMILES: Clc1ccc(Cn2nc(OCCCN3CCCC3)c3ccccc32)cc1
- pEC50 [11]: 5.43

SMILES: CC(C)C[C@H]1CN(C(=O)/C=C/c2ccc([N+](=O)[O-])cc2)[C@@H](CC(C)C)C(=O)N1
- EC90 [1]: > 10000 nM

SMILES: CC(C)C[C@H]1C(=O)N[C@@H](c2ccccc2)CN1C(=O)c1cc(-c2ccc(F)cc2)on1
- EC90 [1]: 60 nM

SMILES: CC(C)C[C@H]1CN(C(=O)c2cc(-c3ccc([N+](=O)[O-])cc3)on2)[C@@H](CC(C)C)C(=O)N1
- EC90 [1]: 2600 nM

SMILES: CC(C)C[C@H]1CN(C(=O)/C=C/c2ccc(F)cc2)[C@@H](CC(C)C)C(=O)N1
- EC90 [1]: 1500 nM

SMILES: COc1ccc(-c2cc(C(=O)N3C[C@H](CC(C)C)NC(=O)[C@@H]3CC(C)C)no2)cc1
- EC90 [1]: 1300 nM

SMILES: CC(C)C[C@H]1CN(C(=O)c2cc(-c3ccccc3)on2)[C@@H](CC(C)C)C(=O)N1
- EC90 [1]: 1100 nM

SMILES: COc1ccc(Cl)cc1Nc1nc(-c2cccnc2)cs1
- pEC50 [4]: 5.82
- pKd [5]: 5.77

SMILES: O=C(NCc1cccs1)c1cc2nc(-c3ccco3)cc(C(F)(F)Cl)n2n1 [ANGUIZOLE]
- pEC50 [12]: 6.20
- pEC50 [13]: 6.25
- CC75 [14]: > 100000 nM
- pEC50 [15]: 6.51
- CC50 at 48 h [16]: > 50000 nM
- pKd [5]: 6.18

SMILES: CC(C)CN(C)c1nc(N)c(C(=O)N=C(N)N)nc1Cl [5-(N-METHYL-N-ISOBUTYL)AMILORIDE]
- pEC50 [17]: 5.60
- pEC50 [18]: 5.43

SMILES: Clc1ccc(Cn2c(/C=C/C3CCN(CC4CCCCC4)C3)nc3cc(Br)ccc32)cc1 (centres undefined)
- pEC50 [11]: 5.74
